In patent US20240252454A1, “COMPOSITION COMPRISING AN INHIBITOR OF MITOCHONDRIAL TRANSCRIPTION” (LEAD DISCOVERY CENTER GMBH, priority 2021, published 2024):

How the values were obtained:
Experiment in all cases: SRB assay, IMT combined with inhibitor
Assay type in all cases: cell-based
SW620 = SW620 (colon); concentration series of the labelled inhibitor + fixed concentration of IMT (3S)-1-[(2R)-2-[4-(2-chloro-4-fluoro-phenyl)-2-oxo-chromen-7-yl]oxypropanoyl]piperidine-3-carboxylic acid (Table 3: 40 nM, 120 h); negative=synergistic, positive=antagonistic
Method in brief: (§1)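 SRB biomass readout; 120 h exposure; 5 mM glucose medium; ≥2 independent replicates. MAPK SOC dilution series + fixed 40 nM (3S)-1-[(2R)-2-[4-(2-chloro-4-fluoro-phenyl)-2-oxo-chromen-7-yl]oxypropanoyl]piperidine-3-carboxylic acid; untreated cells as negative control.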

MV4-11 = MV4-11 (hematological); concentration series of the labelled inhibitor + fixed concentration of IMT (3S)-1-[(2R)-2-[4-(2-chloro-4-fluoro-phenyl)-2-oxo-chromen-7-yl]oxypropanoyl]piperidine-3-carboxylic acid (Table 3: 40 nM, 120 h); negative=synergistic, positive=antagonistic
Method in brief: as §1

SKOV3 = SKOV3 (ovary); concentration series of the labelled inhibitor + fixed concentration of IMT (3S)-1-[(2R)-2-[4-(2-chloro-4-fluoro-phenyl)-2-oxo-chromen-7-yl]oxypropanoyl]piperidine-3-carboxylic acid (Table 3: 40 nM, 120 h); negative=synergistic, positive=antagonistic
Method in brief: as §1

U2OS = U2OS (bone); concentration series of the labelled inhibitor + fixed concentration of IMT (3S)-1-[(2R)-2-[4-(2-chloro-4-fluoro-phenyl)-2-oxo-chromen-7-yl]oxypropanoyl]piperidine-3-carboxylic acid (Table 3: 40 nM, 120 h); negative=synergistic, positive=antagonistic
Method in brief: as §1

NCIH460 = NCIH460 (lung); concentration series of the labelled inhibitor + fixed concentration of IMT (3S)-1-[(2R)-2-[4-(2-chloro-4-fluoro-phenyl)-2-oxo-chromen-7-yl]oxypropanoyl]piperidine-3-carboxylic acid (Table 3: 40 nM, 120 h); negative=synergistic, positive=antagonistic
Method in brief: as §1

HELA = HELA (cervix); concentration series of the labelled inhibitor + fixed concentration of IMT (3S)-1-[(2R)-2-[4-(2-chloro-4-fluoro-phenyl)-2-oxo-chromen-7-yl]oxypropanoyl]piperidine-3-carboxylic acid (Table 3: 40 nM, 120 h); negative=synergistic, positive=antagonistic
Method in brief: as §1

SKMEL5 = SKMEL5 (skin); concentration series of the labelled inhibitor + fixed concentration of IMT (3S)-1-[(2R)-2-[4-(2-chloro-4-fluoro-phenyl)-2-oxo-chromen-7-yl]oxypropanoyl]piperidine-3-carboxylic acid (Table 3: 40 nM, 120 h); negative=synergistic, positive=antagonistic
Method in brief: as §1

COLO205 = COLO205 (colon); concentration series of the labelled inhibitor + fixed concentration of IMT (3S)-1-[(2R)-2-[4-(2-chloro-4-fluoro-phenyl)-2-oxo-chromen-7-yl]oxypropanoyl]piperidine-3-carboxylic acid (Table 3: 40 nM, 120 h); negative=synergistic, positive=antagonistic
Method in brief: as §1

A549 = A549 (lung); concentration series of the labelled inhibitor + fixed concentration of IMT (3S)-1-[(2R)-2-[4-(2-chloro-4-fluoro-phenyl)-2-oxo-chromen-7-yl]oxypropanoyl]piperidine-3-carboxylic acid (Table 3: 40 nM, 120 h); negative=synergistic, positive=antagonistic
Method in brief: as §1

GRANTA-519 = GRANTA-519 (hematological); concentration series of the labelled inhibitor + fixed concentration of IMT (3S)-1-[(2R)-2-[4-(2-chloro-4-fluoro-phenyl)-2-oxo-chromen-7-yl]oxypropanoyl]piperidine-3-carboxylic acid (Table 3: 40 nM, 120 h); negative=synergistic, positive=antagonistic
Method in brief: as §1

HT1080 = HT1080 (connective tissue); concentration series of the labelled inhibitor + fixed concentration of IMT (3S)-1-[(2R)-2-[4-(2-chloro-4-fluoro-phenyl)-2-oxo-chromen-7-yl]oxypropanoyl]piperidine-3-carboxylic acid (Table 3: 40 nM, 120 h); negative=synergistic, positive=antagonistic
Method in brief: as §1

CALU6 = CALU6 (lung); concentration series of the labelled inhibitor + fixed concentration of IMT (3S)-1-[(2R)-2-[4-(2-chloro-4-fluoro-phenyl)-2-oxo-chromen-7-yl]oxypropanoyl]piperidine-3-carboxylic acid (Table 3: 40 nM, 120 h); negative=synergistic, positive=antagonistic
Method in brief: as §1

DU145 = DU145 (prostate); concentration series of the labelled inhibitor + fixed concentration of IMT (3S)-1-[(2R)-2-[4-(2-chloro-4-fluoro-phenyl)-2-oxo-chromen-7-yl]oxypropanoyl]piperidine-3-carboxylic acid (Table 3: 40 nM, 120 h); negative=synergistic, positive=antagonistic
Method in brief: as §1

U87MG = U87MG (brain); concentration series of the labelled inhibitor + fixed concentration of IMT (3S)-1-[(2R)-2-[4-(2-chloro-4-fluoro-phenyl)-2-oxo-chromen-7-yl]oxypropanoyl]piperidine-3-carboxylic acid (Table 3: 40 nM, 120 h); negative=synergistic, positive=antagonistic
Method in brief: as §1

SMILES	difference between the calculated combinatorial index (BLISS) and the observed combinatorial effect (SW620)	difference between the calculated combinatorial index (BLISS) and the observed combinatorial effect (MV4-11)	difference between the calculated combinatorial index (BLISS) and the observed combinatorial effect (SKOV3)	difference between the calculated combinatorial index (BLISS) and the observed combinatorial effect (U2OS)	difference between the calculated combinatorial index (BLISS) and the observed combinatorial effect (NCIH460)	difference between the calculated combinatorial index (BLISS) and the observed combinatorial effect (HELA)	difference between the calculated combinatorial index (BLISS) and the observed combinatorial effect (SKMEL5)	difference between the calculated combinatorial index (BLISS) and the observed combinatorial effect (COLO205)	difference between the calculated combinatorial index (BLISS) and the observed combinatorial effect (A549)	difference between the calculated combinatorial index (BLISS) and the observed combinatorial effect (GRANTA-519)	difference between the calculated combinatorial index (BLISS) and the observed combinatorial effect (HT1080)	difference between the calculated combinatorial index (BLISS) and the observed combinatorial effect (CALU6)	difference between the calculated combinatorial index (BLISS) and the observed combinatorial effect (DU145)	difference between the calculated combinatorial index (BLISS) and the observed combinatorial effect (U87MG)
COc1c(OCCCN2CCOCC2)ccc2c1N=C(NC(=O)c1cnc(N)nc1)N1CCN=C21 [BAY 80-6946, 2-Amino-N-{7-methoxy-8-[3-(4-morpholinyl)propoxy]-2,3-dihydroimidazo[1,2-c]quinazolin-5-yl}-5-pyrimidinecarboxamide]	−0.0651	0.0337	0.0112	0.0017	−0.0473	−0.0260	−0.0994	0.0531	0.0159	0.0631	−0.0627	0.0374	0.0423	0.0243
C[C@H](Nc1ncnc2nc[nH]c12)c1cc2cccc(Cl)c2c(=O)n1-c1ccccc1 [Duvelisib]	−0.0623	0.0611	0.0398	−0.0126	−0.0651	−0.0666	−0.1083	−0.0157	−0.0092	0.0770	−0.0565	0.0342	0.0362	0.0433
CC(C)Nc1cc(-c2c[nH]c(C(=O)N[C@H](CO)c3cccc(Cl)c3)c2)c(Cl)cn1 [Ulixertinib]	0.0256	0.0079	0.0284	−0.0165	0.0088	−0.0117	−0.0542	0.0384	−0.0185	0.0393	−0.0011	0.0100	0.0554	0.0859
Cn1cnc2c(F)c(Nc3ccc(Br)cc3Cl)c(C(=O)NOCCO)cc21 [Selumetinib]	−0.0547	0.0150	0.0622	−0.1010	−0.0276	0.0054	−0.0968	0.0142	−0.0519	0.0050	−0.0139	0.0376	0.0383	0.0486
O=C(NOC[C@H](O)CO)c1ccc(F)c(F)c1Nc1ccc(I)cc1F [PD 0325901, (R)—N-(2,3-dihydroxypropoxy)-3,4-difluoro-2-((2-fluoro-4-iodophenyl)amino)benzamide]	0.0316	0.0637	−0.0555	0.0014	0.0200	−0.2549	0.0095	0.0261	−0.0245	0.0420	0.0433	0.0809	−0.0558	0.0604
